The test system of one data set is C. krusei ATCC 6258. As to the kind of experiment: Broth microdilution MIC, C. krusei. It counts as cell-based, Candida krusei. Particulars: Pichia kudriavzevii, ATCC6258. The method, then:
(§1) Stock solutions of bpa, bpe, and silver(I) complexes 1–3 were prepared fresh in DMSO (50 mg/mL) and kept at 4°C prior to use. Susceptibility testing of Candida spp. (C. albicans ATCC 10231, C. krusei ATCC 6258, C. parapsilosis ATCC 22019, and C. glabrata ATCC 2001) was performed according to CLSI broth microdilution guidelines (Clinical and Laboratory Standards Institute, Reference Method for Broth Dilution Antifungal Susceptibility Testing of Yeasts—Third Edition: Approved Standard M27-A3; Clinical and Laboratory Standards Institute, Reference Method for Broth Dilution Antifungal Susceptibility Testing of Yeasts: Fourth Informational Supplement M27-S4), in RPMI 1640 medium (Roswell Park Memorial Institute medium) containing 2% glucose (w/v). The highest tested concentration was 500 μg/mL, and the inocula were 1^·\10^5 colony forming units (cfu)/mL.
On the technique in general: Broth dilution looks for growth in wells or tubes with falling amounts of substance.

Data set [1] relates to Enterococcus faecalis ATCC 29212. Put plainly: Broth microdilution MIC, E. faecalis. The data set is classed as cell-based. The following applies: Enterococcus faecalis. The method, then: (§2) Minimal inhibitory concentration (MIC) values against Pseudomonas aeruginosa PA01, Staphylococcus aureus ATCC 43300, Salmonella enteritidis ATCC 13075, Salmonella pullorum ATCC 13036, Escherichia coli NCTC 9001, Listeria monocytogenes NCTC 11994, and Enterococcus faecalis ATCC 29212 were determined in Luria-Bertani broth (10.0 g/L tryptone, 10.0 g/L NaCl, 5.0 g/L yeast extract, pH 7.2) in accordance with the standard broth microdilution assay for bacteria that grow aerobically, as recommended by the CLSI (Clinical and Laboratory Standards Institute, Methods for Dilution Antimicrobial Susceptibility Tests for Bacteria That Grow Aerobically; Approved Standard—Tenth Edition M07-A10. CLSI). The highest tested concentration was 500 μg/mL, and the inocula were 1^·10^6 cfu/mL.

For data set [2], the system named is Pseudomonas aeruginosa PAO1. Put plainly: Broth microdilution MIC, P. aeruginosa. The data set is classed as cell-based. Particulars: Pseudomonas aeruginosa. As to the method: as §2
The test system of data set [3] is C. parapsilosis ATCC 22019. As to the kind of experiment: Broth microdilution MIC, C. parapsilosis. The data set is classed as cell-based, Candida parapsilosis. Particulars: Lodderomyces parapsilosis, ATCC22019. As to the method:
as §1

Data set [4] deals with Staphylococcus aureus ATCC 43300. As to the kind of experiment: Broth microdilution MIC, S. aureus. The data set is classed as cell-based. The following applies: Staphylococcus aureus. As to the method:
as §2

The test system of data set [5] is Salmonella pullorum ATCC 13036. As to the kind of experiment: Broth microdilution MIC, S. pullorum. The following applies: Salmonella enterica, 24 h. The data set is classed as cell-based. As to the method: as §2
Data set [6] deals with investigated bacterial strains. As to the kind of experiment: Broth microdilution MIC, panel of bacterial strains. It counts as cell-based. As to the method: as §2
The test system of data set [7] is Listeria monocytogenes NCTC 11994. As to the kind of experiment: Broth microdilution MIC, L. monocytogenes. It counts as cell-based. The following applies: Listeria monocytogenes. The method, then: as §2
The test system of a further data set is C. albicans ATCC 10231. As to the kind of experiment: Broth microdilution MIC, C. albicans. The data set is classed as cell-based, Candida albicans. The following applies: Candida albicans, ATCC10231. As to the method:
as §1

The test system of data set [8] is Salmonella enteritidis ATCC 13075. As to the kind of experiment: Broth microdilution MIC, S. enteritidis. It counts as cell-based. The following applies: Salmonella enterica, 24 h. As to the method: as §2
Data set [9] can be described thus: MTT assay on a human fibroblast cell line. The data set is classed as cell-based. Particulars: human, MRC-5, MTT, read-out: IC50 (cytotoxic effect on MRC-5 cells). The method, then: Antiproliferative activity was tested by 3-(4,5-dimethylthiazol-2-yl)-2,5-diphenyltetrazolium bromide (MTT) assay on a human lung fibroblast cell line (MRC-5; ATCC collection). Pregrown (24 h) cell monolayers were incubated in the media containing the tested compounds at concentrations ranging from 5 to 500 μg/mL and the cell viability was measured after 48 h. RPMI 1640 medium supplemented with 100 μg/mL streptomycin, 100 U/mL penicillin, and 10% (v/v) FBS (all from Sigma, Munich, Germany) was used for the cultivation of MRC-5 cell line. Cells were maintained as a monolayer (1^·10^4 cells per well) in RPMI 1640 and grown in a humidified atmosphere of 95% air and 5% CO2 at 37°C. The extent of MTT reduction was measured spectrophotometrically at 540 nm using Tecan Infinite 200 Pro multiplate reader (Tecan Group Ltd, Männedorf, Switzerland), and the cell survival was expressed as a percentage of the control (untreated cells). Cytotoxicity was expressed as the concentration of the compound inhibiting cell growth by 50% (IC50).

The subject of data set [10] is Escherichia coli NCTC 9001. As to the kind of experiment: Broth microdilution MIC, E. coli. It counts as cell-based. The following applies: Escherichia coli. The method, then: as §2
A further data set concerns C. glabrata ATCC 2001. Put plainly: Broth microdilution MIC, C. glabrata. It counts as cell-based, Candida glabrata. Particulars: Nakaseomyces glabratus, ATCC2001. The method, then:
as §1

For the next data set, the system named is calf thymus DNA (ctDNA). The following applies: proven DNA intercalator; cited from earlier work.

Each structure is given as a SMILES string. ≈ marks a conversion by molar mass, not a printed value. Read-outs that look alike come from different tables or passages of the source.

For orientation: MIC means the lowest concentration that inhibits growth of the organism. What is called IC50 is the point on the concentration scale where inhibition reaches its midpoint. Regarding `c1cc(CCc2ccncc2)ccn1` [bpa, 1,2-Bis(4-pyridyl)ethane], the MIC against C. krusei ATCC 6258 was 125 µg/mL (≈ 678 µM); in [1] (ATCC29212, 24 h), above 500 µg/mL; in [2] (PAO1, 24 h), above 500 µg/mL; in data set [3], 250 µg/mL (≈ 1360 µM); in data set [4] (ATCC43300, 24 h) it was above 500 µg/mL; in [5], above 500 µg/mL. In addition, the MIC was above 500 µg/mL in data set [7] (NCTC11994, 24 h); 125 µg/mL (≈ 678 µM) against C. albicans ATCC 10231; above 500 µg/mL in data set [8]; above 500 µg/mL in data set [10] (NCTC9001, 24 h); above 500 µg/mL against C. glabrata ATCC 2001. In addition, the “MIC / antibacterial activity” value in data set [6] is reported as “not significant”. Further, in data set [9], the IC50 at 48 h is 300 µg/mL (≈ 1630 µM).
With `C[n+]1c2ccccc2c(-c2c3ccccc3[n+](C)c3ccccc23)c2ccccc21` [lucigenin], the Hypochromism in the data set on calf thymus DNA (ctDNA) is listed as 50%.
`C(=Cc1ccncc1)c1ccncc1` [bpe, 1,2-bis(4-pyridyl)ethene, reference compound]: the MIC is 200 µg/mL (≈ 1100 µM) in the data set on C. krusei ATCC 6258 (C. krusei ATCC 6258, RPMI 1640 with 2% glucose, read-out: MIC); above 500 µg/mL in [1] (ATCC29212, E. faecalis ATCC 29212, Luria-Bertani broth, 24 h, 37°C, read-out: MIC); 500 µg/mL (≈ 2740 µM) in data set [2] (P. aeruginosa PAO1, Luria-Bertani broth, 24 h, 37°C, read-out: MIC); 125 µg/mL (≈ 686 µM) in data set [3] (C. parapsilosis ATCC 22019, RPMI 1640 with 2% glucose, read-out: MIC); above 500 µg/mL in [4] (ATCC43300, S. aureus ATCC 43300, Luria-Bertani broth, 24 h, 37°C, read-out: MIC); above 500 µg/mL in data set [5] (S. pullorum ATCC 13036, Luria-Bertani broth, 37°C, read-out: MIC). Also, the MIC was 100 µg/mL (≈ 549 µM) in data set [7] (NCTC11994, L. monocytogenes NCTC 11994, Luria-Bertani broth, 24 h, 37°C, read-out: MIC); 200 µg/mL (≈ 1100 µM) in the data set with C. albicans ATCC 10231 (C. albicans ATCC 10231, RPMI 1640 with 2% glucose, read-out: MIC); above 500 µg/mL in [8] (S. enteritidis ATCC 13075, Luria-Bertani broth, 37°C, read-out: MIC); 250 µg/mL (≈ 1370 µM) in data set [10] (NCTC9001, E. coli NCTC 9001, Luria-Bertani broth, 24 h, 37°C, read-out: MIC); 100 µg/mL (≈ 549 µM) in the data set with C. glabrata ATCC 2001 (C. glabrata ATCC 2001, RPMI 1640 with 2% glucose, read-out: MIC). Further, in [6], the “MIC / antibacterial activity” value is “not significant”. Further, the IC50 at 48 h in [9] (MRC-5 human lung fibroblast cells) was 220 µg/mL (≈ 1210 µM).

The values above are taken from PMC7178511, “Antimicrobial Activity and DNA/BSA Binding Affinity of Polynuclear Silver(I) Complexes with 1,2-Bis(4-pyridyl)ethane/ethene as Bridging Ligands” (Bioinorganic Chemistry and Applications, 2020).
